Reference: ChEMBL document CHEMBL6087443, “3-Halo-3-nitro-aza/thioflavanones: DNMT inhibitors with a two-site binding mode in the hDNMT3A catalytic pocket” (Bioorg Med Chem, 2025)
Active and inactive are the calls of the source. The calls are words filed in the database; no cut-off is given here.

Experiments:
[1] = Stability of compound in DNMT methylation buffer by HPLC analysis; assay type: physicochemical
[2] = target: DNA (cytosine-5)-methyltransferase 3A (Homo sapiens) (UniProt Q9Y6K1); experiment: Inhibition of hDNMT3A-c using SAM and oligonucleotide with CpG site at 10 uM incubated for 2 hrs by fluorescence-based assay relative to control
DNA (cytosine-5)-methyltransferase 3A (Homo sapiens), sequence (Q9Y6K1 whole entry, looked up): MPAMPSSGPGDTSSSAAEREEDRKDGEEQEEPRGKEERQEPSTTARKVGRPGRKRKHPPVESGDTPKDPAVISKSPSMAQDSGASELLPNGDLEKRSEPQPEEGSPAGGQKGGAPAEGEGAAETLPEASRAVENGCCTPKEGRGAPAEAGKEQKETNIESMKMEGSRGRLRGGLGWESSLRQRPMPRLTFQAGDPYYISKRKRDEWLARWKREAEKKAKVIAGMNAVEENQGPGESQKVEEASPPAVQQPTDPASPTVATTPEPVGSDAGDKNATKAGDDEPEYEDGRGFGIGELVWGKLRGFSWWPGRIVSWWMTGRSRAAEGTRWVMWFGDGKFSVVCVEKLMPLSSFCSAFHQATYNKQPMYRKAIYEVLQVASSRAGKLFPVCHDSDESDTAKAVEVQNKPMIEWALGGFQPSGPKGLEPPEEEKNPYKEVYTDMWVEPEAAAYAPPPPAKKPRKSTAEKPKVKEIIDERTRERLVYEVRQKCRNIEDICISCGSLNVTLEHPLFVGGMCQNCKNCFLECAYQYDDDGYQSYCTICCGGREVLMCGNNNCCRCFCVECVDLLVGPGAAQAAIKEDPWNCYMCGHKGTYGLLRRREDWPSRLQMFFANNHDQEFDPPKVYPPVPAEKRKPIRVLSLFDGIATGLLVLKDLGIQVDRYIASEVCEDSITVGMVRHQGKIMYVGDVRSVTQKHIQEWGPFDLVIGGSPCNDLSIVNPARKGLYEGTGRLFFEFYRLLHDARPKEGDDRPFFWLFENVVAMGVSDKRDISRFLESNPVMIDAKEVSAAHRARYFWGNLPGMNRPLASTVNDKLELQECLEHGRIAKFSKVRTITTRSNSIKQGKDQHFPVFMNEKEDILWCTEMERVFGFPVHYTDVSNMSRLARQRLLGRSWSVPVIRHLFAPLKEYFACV

[3] = target: DNA (cytosine-5)-methyltransferase 3A (Homo sapiens) (UniProt Q9Y6K1); experiment: Inhibition of hDNMT3A-c using SAM and oligonucleotide with CpG site at 32 uM incubated for 2 hrs by fluorescence-based assay relative to control
[4] = Stability of the compound in HEPES buffer incubated for 2 hrs by measuring inhibition of DNMT (unknown origin) at 10 uM by HPLC analysis; assay type: physicochemical
[5] = Stability of the compound in HEPES buffer incubated for 2 hrs by measuring inhibition of DNMT (unknown origin) at 32 uM by HPLC analysis; assay type: physicochemical
[6] = Stability of the compound at pH 5.3; assay type: physicochemical; settings: buffer

SMILES	half-life [1] [min]	inhibition [2]	inhibition [3]	Stability [4]	Stability [5]	Stability [6]
O=C1c2ccccc2S[C@@H](c2cccc(C(F)(F)F)c2)[C@@]1(Br)[N+](=O)[O-] (relative stereo)	12	35%	63%			
O=C1c2ccccc2NC(c2ccccc2)C1[N+](=O)[O-] (stereo unspecified)		inactive	inactive			
O=C1c2ccccc2S[C@@H](c2ccccc2)[C@]1(Br)[N+](=O)[O-] (relative stereo)	72	51%	86%			
O=C1c2ccccc2O[C@@H](c2ccccc2[N+](=O)[O-])[C@]1(Cl)[N+](=O)[O-] (relative stereo)		69%	84%			
O=C1c2ccccc2O[C@@H](c2ccccc2)[C@]1(Br)[N+](=O)[O-] (relative stereo)		69%	92%			
O=C1c2ccccc2NC(c2ccccc2)C1(Br)[N+](=O)[O-] (racemic)	18	55%	89%			
COc1cccc(C2Nc3ccccc3C(=O)C2[N+](=O)[O-])c1 (stereo unspecified)		inactive	inactive			
COc1cccc(C2Nc3ccccc3C(=O)C2(Cl)[N+](=O)[O-])c1 (racemic)	138	42%	56%			
O=C1c2ccccc2S[C@H](c2cccc([N+](=O)[O-])c2)[C@@]1(Br)[N+](=O)[O-] (relative stereo)	54	27%	59%			
O=C1c2ccccc2S[C@@H](c2ccccc2F)[C@@]1(Br)[N+](=O)[O-] (relative stereo)	66	42%	67%			
O=C1c2ccccc2S[C@@H](c2ccccc2)[C@@]1(Br)[N+](=O)[O-] (relative stereo)	12	42%	68%			
O=C1c2ccccc2S[C@@H](c2ccccc2F)[C@]1(Br)[N+](=O)[O-] (relative stereo)	48	32%	67%			
O=C1c2ccccc2S[C@@H](c2cccc(C(F)(F)F)c2)[C@]1(Br)[N+](=O)[O-] (relative stereo)	192	34%	78%			
COc1cccc(C2Nc3ccccc3C(=O)C2(Br)[N+](=O)[O-])c1 (racemic)	42	59%	100%	Unstable	Unstable	Stable
